Measurements: patent publication US11840686B2, “Modulation of prekallikrein (PKK) expression” (Ionis Pharmaceuticals, Inc., priority 2013, dated 2023)
Strand notation (5' to 3'): a small letter for the sugar, then the base; units joined by * are phosphorothioate-linked, units joined directly phosphodiester-linked; [ ] holds rarer units or linkages, { } end groups; capitals alone tell only the bases. e = 2'-O-(2-methoxyethyl) (MOE); [5mC] = 5-methylcytosine; d = 2'-deoxy (DNA)

System: human PKK mRNA
Experiment: Antisense inhibition of human PKK mRNA in HepaRG cells, 5,000 nM (Example 2)
Assay type: cell-based
Procedure, shortened: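 Chimeric MOE gapmers with full phosphorothioate backbones were tested once at 5,000 nM in electroporated HepaRG cells. After about 24 hours, quantitative PCR measured PKK mRNA relative to untreated control cells.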

[1] = Table 13, human PKK mRNA in HepaRG cells, 5-10-5 gapmers
[2] = HepaRG cells, electroporation, 5,000 nM antisense oligonucleotide, approx. 24 hours, primer probe set RTS3454, relative to untreated control cells, Table 12
[3] = HepaRG cells, 5,000 nM antisense oligonucleotide, 5-10-5 gapmers, Table 16
[4] = human PKK mRNA in HepaRG cells, 5-10-5 gapmers, Table 14
[5] = HepaRG cells, electroporation, 5,000 nM antisense oligonucleotide, approx. 24 hours, primer probe set RTS3454, relative to untreated control cells, Table 11
[6] = Table 9 experiment, HepaRG cells, 20,000 cells per well, electroporation with 5,000 nM antisense oligonucleotide, approx. 24 hours, PKK mRNA by RT-PCR (RTS3454), relative to untreated control cells
[7] = Table 10 experiment, HepaRG cells, 20,000 cells per well, electroporation with 5,000 nM antisense oligonucleotide, approx. 24 hours, PKK mRNA by RT-PCR (RTS3454), relative to untreated control cells
[8] = HepaRG cells, electroporation with 5,000 nM antisense oligonucleotide, approximately 24 hours, PKK mRNA by RT-PCR (RTS3454), relative to untreated control cells, Table 5 experiment
[9] = human PKK mRNA, HepaRG cells, 5-10-5 motif oligonucleotides targeting SEQ ID NO: 1 and 10
[10] = HepaRG cells, electroporation with 5,000 nM antisense oligonucleotide, approximately 24 hours, PKK mRNA by RT-PCR (RTS3454), relative to untreated control cells, Table 6 experiment
[11] = human PKK mRNA, HepaRG cells, 5,000 nM antisense oligonucleotide, Table 18
[12] = HepaRG cells, 5,000 nM antisense oligonucleotide, 5-10-5 gapmers, Table 17
[13] = Table 7, HepaRG cells, electroporation with 5,000 nM antisense oligonucleotide, approx. 24 hours, PKK mRNA by RT-PCR (RTS3454), relative to untreated control cells

Q: How did the “% inhibition” value [1] turn out when “546831 (eT*e[5mC]*eT*eA*eA*d[5mC]*dA*dG*dT*dA*dT*d[5mC]*dA*d[5mC]*dT*eG*eT*eA*e[5mC]*eT; antisense) [compound 546831]” was run?
A: 79%

Q: Which “% inhibition” value [2] does the source give for “547547 (antisense eG*e[5mC]*eA*eT*eA*d[5mC]*dT*d[5mC]*dG*d[5mC]*d[5mC]*dT*dT*dT*dG*eT*eG*eA*eT*eG) [compound 547547]” here?
A: 42%

Q: With “547681 (antisense eA*eA*eT*eA*eT*d[5mC]*dA*d[5mC]*dT*dG*dT*dA*d[5mC]*d[5mC]*dT*eA*eT*eA*eT*e[5mC]) [compound 547681]” as the substance, how does the “% inhibition” value [3] read?
A: 6%

Q: “547598 (antisense eA*e[5mC]*eT*eA*eT*dA*dA*d[5mC]*dA*dA*dT*dA*dT*d[5mC]*dA*e[5mC]*eT*eG*eT*e[5mC]) [compound 547598]” was tested. Which “% inhibition” value [4] did it give?
A: 59%

Q: For “546360 (antisense eA*e[5mC]*eT*eG*e[5mC]*dA*dT*d[5mC]*dT*dG*dA*dG*d[5mC]*dT*dT*eT*eT*e[5mC]*e[5mC]*eA) [compound 546360]”, which “% inhibition” value [5] is on record?
A: 13%

Q: How did the “% inhibition” value [3] turn out when “546913 (eG*eT*eA*e[5mC]*e[5mC]*dT*dA*dT*dA*dT*d[5mC]*dA*d[5mC]*dT*dG*eT*eA*eA*e[5mC]*eT; antisense) [compound 546913]” was run?
A: 38%

Q: “546321 (antisense eG*eA*eA*eG*eG*dT*dA*dG*dG*d[5mC]*dA*dT*dA*dT*dT*eG*eG*eT*eT*eT) [compound 546321]” was tested. Which “% inhibition” value [6] did it give?
A: 53%

Q: What about the “% inhibition” value [7] of the same substance?
A: 56%

Q: Which “% inhibition” value [2] does the source give for “546397 (eT*eT*eT*eT*eT*dT*dG*dA*dT*d[5mC]*dT*dT*dT*d[5mC]*dA*e[5mC]*e[5mC]*eA*eT*eT; antisense) [compound 546397]” here?
A: 55%

Q: Which “% inhibition” value [2] does the source give for “547551 (antisense eT*e[5mC]*e[5mC]*e[5mC]*e[5mC]*dA*dT*dG*d[5mC]*dA*dT*dA*d[5mC]*dT*d[5mC]*eG*e[5mC]*e[5mC]*eT*eT) [compound 547551]” here?
A: 38%

Q: With “547304 (antisense e[5mC]*eT*eT*eT*eT*d[5mC]*dT*d[5mC]*d[5mC]*dA*dT*dG*dT*d[5mC]*dA*eT*eT*eG*eA*eT) [compound 547304]” as the substance, how does the “% inhibition” value [8] read?
A: 71%

Q: Which “% inhibition” value (Table 8, HepaRG cells, electroporation with 5,000 nM antisense oligonucleotide, approx. 24 hours, PKK mRNA by RT-PCR (RTS3454), relative to untreated control cells) does the source give for “546284 (antisense e[5mC]*eA*e[5mC]*eA*eA*dT*d[5mC]*dT*d[5mC]*dA*dA*dA*dG*dA*dG*eT*eA*eA*e[5mC]*e[5mC]) [compound 546284]” here?
A: 89%

Q: With “547675 (antisense eT*eG*eT*e[5mC]*e[5mC]*dT*dA*dT*dA*dA*d[5mC]*dT*dA*dT*dA*eA*e[5mC]*eA*eA*eT) [compound 547675]” as the substance, how does the “% inhibition” value [9] read?
A: 10%

Q: How did the “% inhibition” value [5] turn out when “546356 (antisense eT*e[5mC]*e[5mC]*eA*eG*dT*d[5mC]*d[5mC]*dA*dT*dG*dT*dA*d[5mC]*dT*e[5mC]*eA*eG*e[5mC]*eG) [compound 546356]” was run?
A: 60%

Q: For “546915 (eT*e[5mC]*eA*e[5mC]*eT*dG*dT*d[5mC]*d[5mC]*dT*dA*dT*dA*dA*d[5mC]*eT*eA*eT*eA*eT; antisense) [compound 546915]”, which “% inhibition” value [3] is on record?
A: 39%

Q: “547346 (antisense eA*e[5mC]*e[5mC]*eT*eT*dA*dG*dA*d[5mC]*dA*d[5mC]*dA*dT*dT*dA*eA*eA*eA*eT*eT) [compound 547346]” was tested. Which “% inhibition” value [10] did it give?
A: 57%

Q: With “547679 (antisense eT*eG*eT*eA*e[5mC]*d[5mC]*dT*dA*dT*dA*dT*d[5mC]*dA*d[5mC]*dT*eG*eT*eA*eA*e[5mC]) [compound 547679]” as the substance, how does the “% inhibition” value [3] read?
A: 28%

Q: “548737 (DNA eA*e[5mC]*eT*eA*dG*dT*dT*dT*d[5mC]*d[5mC]*dT*dA*dT*eA*eA*e[5mC]*eT; antisense) [compound 548737]” was tested. Which “% inhibition” value [11] did it give?
A: 11%

Q: For “546184 (antisense e[5mC]*eA*eA*eG*e[5mC]*dA*d[5mC]*dT*dT*dA*dT*dT*dT*dG*dA*eT*eG*eA*e[5mC]*e[5mC]) [compound 546184]”, which “% inhibition” value [10] is on record?
A: 65%

Q: “546795 (eG*eT*e[5mC]*eT*e[5mC]*dG*dA*dT*dG*dG*d[5mC]*dA*dA*dG*d[5mC]*eT*eG*eT*eA*e[5mC]; antisense) [compound 546795]” was tested. Which “% inhibition” value [1] did it give?
A: 72%

Q: With “546756 (eA*eT*eA*eA*eG*d[5mC]*dA*dT*d[5mC]*dT*d[5mC]*dT*d[5mC]*dT*dG*eA*e[5mC]*e[5mC]*eT*eA; antisense) [compound 546756]” as the substance, how does the “% inhibition” value [1] read?
A: 47%

Q: With “546683 (eT*e[5mC]*e[5mC]*eT*eA*dT*d[5mC]*d[5mC]*dG*dT*dG*dT*dT*d[5mC]*dA*eG*e[5mC]*eT*eG*eT; antisense) [compound 546683]” as the substance, how does the “% inhibition” value [2] read?
A: 69%

Q: For “546886 (e[5mC]*eT*eA*eT*eG*dT*d[5mC]*dA*d[5mC]*dT*dG*dT*dA*d[5mC]*d[5mC]*eT*eA*eT*eA*eA; antisense) [compound 546886]”, which “% inhibition” value [9] is on record?
A: 80%

Q: “548708 (DNA eT*eA*e[5mC]*dT*dA*dG*dT*dT*dT*d[5mC]*d[5mC]*dT*dA*eT*eA*eA; antisense) [compound 548708]” was tested. Which “% inhibition” value (HepaRG cells, 5,000 nM antisense oligonucleotide, human PKK mRNA, Table 18) did it give?
A: 0%

Q: How did the “% inhibition” value [2] turn out when “547531 (antisense eT*eT*eA*eT*eT*dT*d[5mC]*dA*d[5mC]*dA*dA*d[5mC]*dA*d[5mC]*dA*e[5mC]*eA*eG*eT*e[5mC]) [compound 547531]” was run?
A: 69%

Q: “547543 (antisense eT*eT*eT*eT*e[5mC]*d[5mC]*dA*dT*dG*d[5mC]*dA*dT*dA*d[5mC]*dT*e[5mC]*eG*e[5mC]*e[5mC]*eT) [compound 547543]” was tested. Which “% inhibition” value [2] did it give?
A: 54%

Q: Which “% inhibition” value [12] does the source give for “547016 (eG*eT*eA*eG*eG*dT*dG*dG*dT*dG*dG*dG*dA*dT*dT*eG*eG*eT*eG*eG; antisense) [compound 547016]” here?
A: 62%

Q: Which “% inhibition” value [12] does the source give for “547035 (eT*eG*eG*eT*e[5mC]*d[5mC]*d[5mC]*dA*dA*dA*dT*dT*dG*dG*dA*eG*eT*eG*e[5mC]*eA; antisense) [compound 547035]” here?
A: 40%

Q: How did the “% inhibition” value [8] turn out when “546166 (eT*eG*eT*e[5mC]*eA*dT*dT*dG*dA*dT*dT*dG*dA*dA*d[5mC]*eT*eT*eG*e[5mC]*eT; antisense) [compound 546166]” was run?
A: 70%

Q: With “547730 (eG*eA*eT*eT*eG*dG*dT*dG*dG*dT*dG*dG*dG*dA*dT*eT*eG*eG*eT*eG; antisense) [compound 547730]” as the substance, how does the “% inhibition” value [12] read?
A: 60%

Q: With “548731 (DNA e[5mC]*eT*eG*eT*dA*d[5mC]*dT*dA*dG*dT*dT*dT*d[5mC]*d[5mC]*eT*eA*eT; antisense) [compound 548731]” as the substance, how does the “% inhibition” value [11] read?
A: 49%

Q: For “546935 (e[5mC]*eG*eT*eG*eG*dT*dT*dA*dG*d[5mC]*d[5mC]*dT*dG*dA*d[5mC]*eA*eT*e[5mC]*eT*e[5mC]; antisense) [compound 546935]”, which “% inhibition” value [3] is on record?
A: 86%

Q: How did the “% inhibition” value [2] turn out when “546426 (eT*e[5mC]*eT*e[5mC]*eT*dG*dG*dT*d[5mC]*dA*dA*dT*d[5mC]*dT*dG*eA*e[5mC]*eT*eA*eG; antisense) [compound 546426]” was run?
A: 49%

Q: “547733 (eT*eA*eG*eG*eA*dT*dT*dG*dG*dT*dG*dG*dT*dG*dG*eG*eA*eT*eT*eG; antisense) [compound 547733]” was tested. Which “% inhibition” value [12] did it give?
A: 0%

Q: For “546765 (eG*eT*eG*eT*e[5mC]*d[5mC]*dA*dG*dA*dA*dT*dA*d[5mC]*dT*dG*e[5mC]*e[5mC]*e[5mC]*e[5mC]*eA; antisense) [compound 546765]”, which “% inhibition” value [1] is on record?
A: 82%

Q: For “547408 (eT*e[5mC]*eA*e[5mC]*eA*dT*dT*d[5mC]*dA*dA*dT*dT*d[5mC]*dT*dT*e[5mC]*eT*e[5mC]*e[5mC]*eT; antisense) [compound 547408]”, which “% inhibition” value [13] is on record?
A: 84%

Q: For “546318 (antisense eA*eT*eT*e[5mC]*eA*dA*dA*dG*dG*dA*dG*d[5mC]*d[5mC]*dT*dG*eG*eA*eG*eT*eT) [compound 546318]”, which “% inhibition” value [6] is on record?
A: 47%

Q: What about the “% inhibition” value [7] of the same substance?
A: 46%

Q: With “547574 (eA*e[5mC]*eA*e[5mC]*eG*d[5mC]*dA*d[5mC]*dA*dG*dG*dT*d[5mC]*d[5mC]*d[5mC]*eA*eG*eG*eG*e[5mC]; antisense) [compound 547574]” as the substance, how does the “% inhibition” value [1] read?
A: 51%

Q: “547347 (antisense eA*e[5mC]*eT*eG*e[5mC]*dT*dA*dA*d[5mC]*d[5mC]*dT*dT*dA*dG*dA*e[5mC]*eA*e[5mC]*eA*eT) [compound 547347]” was tested. Which “% inhibition” value [10] did it give?
A: 82%

Q: For “546969 (eA*eT*e[5mC]*e[5mC]*eA*dA*d[5mC]*d[5mC]*dT*d[5mC]*dT*d[5mC]*dT*d[5mC]*d[5mC]*e[5mC]*eT*eA*eT*e[5mC]; antisense) [compound 546969]”, which “% inhibition” value [3] is on record?
A: 53%

Q: With “546236 (eG*eT*eT*eA*eA*dA*dA*dG*dG*d[5mC]*dT*dA*dT*dA*dT*e[5mC]*e[5mC]*eA*eG*eA; antisense) [compound 546236]” as the substance, how does the “% inhibition” value [13] read?
A: 50%

Q: With “547339 (antisense eT*eA*eT*e[5mC]*eA*dA*d[5mC]*dT*d[5mC]*d[5mC]*dT*dT*dT*dA*dT*eA*eA*eA*eT*eG) [compound 547339]” as the substance, how does the “% inhibition” value [10] read?
A: 42%

Q: “546864 (eA*eT*eA*eA*e[5mC]*dT*dA*dT*dA*dA*d[5mC]*dA*dA*dT*dA*eT*e[5mC]*eA*e[5mC]*eT; antisense) [compound 546864]” was tested. Which “% inhibition” value [4] did it give?
A: 0%
